Measurements reported in patent US12258354B2, “AhR modulators” (IDEAYA BIOSCIENCES, INC., priority 2018, dated 2025).

These molecules were tested against T1, hAhR (Homo sapiens, UniProt P35869) (assay: DRE-luciferase transcriptional reporter assay in HEPG2 DRE-Luc cells, TCDD-induced (antagonist mode)). Conditions: relative IC50, 3 nM TCDD, 24-hour incubation, firefly luciferase readout.
T1 construct: Stably integrated DRE-luciferase cell lines were generated by transducing the both cell lines with Cignal XRE luciferase reporter; endogenous in cells; host or cells: HEPG2 DRE-Luc cells (only the XRE luciferase reporter was transduced)
T1 sequence (P35869 11-848): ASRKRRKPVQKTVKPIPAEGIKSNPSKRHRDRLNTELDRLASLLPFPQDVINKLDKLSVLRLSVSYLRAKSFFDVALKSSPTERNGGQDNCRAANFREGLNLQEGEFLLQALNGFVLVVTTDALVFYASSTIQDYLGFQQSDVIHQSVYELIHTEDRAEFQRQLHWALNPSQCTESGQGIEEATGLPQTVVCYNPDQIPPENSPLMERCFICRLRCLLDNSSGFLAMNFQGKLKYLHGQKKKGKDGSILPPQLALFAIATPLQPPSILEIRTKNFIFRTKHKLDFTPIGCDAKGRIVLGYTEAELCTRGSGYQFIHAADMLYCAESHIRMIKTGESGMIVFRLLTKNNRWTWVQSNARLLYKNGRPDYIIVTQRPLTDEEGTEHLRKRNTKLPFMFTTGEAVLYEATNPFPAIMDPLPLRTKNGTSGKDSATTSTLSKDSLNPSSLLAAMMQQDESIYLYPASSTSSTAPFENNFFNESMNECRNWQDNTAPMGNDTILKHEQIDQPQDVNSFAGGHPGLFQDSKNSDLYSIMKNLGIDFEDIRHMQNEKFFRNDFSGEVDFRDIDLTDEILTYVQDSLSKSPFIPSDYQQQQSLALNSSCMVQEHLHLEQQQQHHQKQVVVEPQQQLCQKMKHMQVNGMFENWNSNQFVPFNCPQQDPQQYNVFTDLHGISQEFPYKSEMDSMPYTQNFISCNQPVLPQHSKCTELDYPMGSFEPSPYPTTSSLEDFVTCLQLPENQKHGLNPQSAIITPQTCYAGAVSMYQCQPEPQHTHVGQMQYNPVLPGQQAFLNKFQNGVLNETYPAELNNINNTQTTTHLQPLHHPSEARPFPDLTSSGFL
Type: cell-based
Method in brief: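 Stable DRE(XRE)-luciferase HEPG2 clone seeded in OptiMEM with 0.5% heat-inactivated FBS, then given a semi-log compound dilution plus TCDD at 3 nM final. After 24 h, cells were lysed and firefly luminescence read. Response was normalised between TCDD and vehicle, and relative IC50 was taken as half-reduction between the fitted curve plateaus.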

Row | SMILES | IC50 [nM]
1 | Cc1cc(-c2ncc3cc(C(F)(F)F)ccc3n2)ccc1N1CCOc2cccnc2C1=O [compound 054, 4-(2-methyl-4-(6-(trifluoromethyl)quinazolin-2-yl)phenyl)-3,4-dihydropyrido[2,3-f][1,4]oxazepin-5 (2H)-one] | 200 to 500
2 | Cc1cc(-c2ncc3cc(C(F)(F)F)ccc3n2)ccc1N1CCn2nc(OCCO)c(C)c2C1=O [compound 089, 2-(2-hydroxyethoxy)-3-methyl-5-(2-methyl-4-(6-(trifluoromethyl)quinazolin-2-yl)phenyl)-6,7-dihydropyrazolo[1,5-a]pyrazin-4 (5H)-one] | < 200
3 | Cc1cc(-c2ncc3cc(C(F)(F)F)ccc3n2)ccc1N1CCn2nc(CN3CCC(O)CC3)c(C)c2C1=O [Example 100, 2-((4-hydroxypiperidin-1-yl)methyl)-3-methyl-5-(2-methyl-4-(6-(trifluoromethyl)-quinazolin-2-yl)phenyl)-6,7-dihydropyrazolo[1,5-a]pyrazin-4 (5H)-one] | < 200
4 | Cc1cc(-c2ncc3cc(C(F)(F)F)ccc3n2)ccc1N1CCOc2cnn(Cc3nnn[nH]3)c2C1=O [compound 075, 7-[2-methyl-4-[6-(trifluoromethyl)quinazolin-2-yl]phenyl]-1-[(1H-1,2,3,4-tetrazol-5-yl)methyl]-1H,5H,6H,7H,8H-pyrazolo[3,4-f][1,4]oxazepin-8-one] | 1000 to 10000
5 | Cc1cc(-c2ncc3nc(C(F)(F)F)ccc3n2)ccc1N1CCOc2nn[nH]c2C1=O [compound 040, 7-[2-methyl-4-[6-(trifluoromethyl)pyrido[3,2-d]pyrimidin-2-yl]phenyl]-1H,5H,6H,7H,8H-[1,2,3]triazolo[4,5-f][1,4]oxazepin-8-one] | 1000 to 10000
6 | Cc1cc(N2CCn3ncc(C)c3C2=O)c(F)cc1-c1ccc2nc(C(F)(F)F)cc(C)c2n1 [compound 022, 5-(2-fluoro-5-methyl-4-(8-methyl-6-(trifluoromethyl)-1,5-naphthyridin-2-yl)phenyl)-3-methyl-6,7-dihydropyrazolo[1,5-a]pyrazin-4 (5H)-one] | < 200
7 | Cc1cc(-c2ccc3nc(C(F)(F)F)cc(C)c3n2)ccc1N1CCOc2cnn(C)c2C1=O [compound 031, 1-methyl-7-(2-methyl-4-(8-methyl-6-(trifluoromethyl)-1,5-naphthyridin-2-yl)phenyl)-6,7-dihydro-1H-pyrazolo[3,4-f][1,4]oxazepin-8 (5H)-one] | < 200
8 | Cc1cc(N2CCn3ncc(C)c3C2=O)c(C)cc1-c1ccc2nc(C(F)(F)F)cc(C)c2n1 [compound 020, 5-(2,5-dimethyl-4-(8-methyl-6-(trifluoromethyl)-1,5-naphthyridin-2-yl)phenyl)-3-methyl-6,7-dihydropyrazolo[1,5-a]pyrazin-4 (5H)-one] | < 200
9 | Cc1cc(-c2ncc3cc(C(F)(F)F)ccc3n2)ccc1N1CCn2nc(CN3CCS(=O)(=O)CC3)c(C)c2C1=O [Example 101, 2-((1,1-dioxidothiomorpholino)methyl)-3-methyl-5-(2-methyl-4-(6-(trifluoro-methyl)quinazolin-2-yl)phenyl)-6,7-dihydropyrazolo[1,5-a]pyrazin-4 (5H)-one] | < 200
10 | Cc1cc(-c2ncc3cc(C(F)(F)F)ccc3n2)ccc1N1CCn2nc(CN3CCN(C)CC3)c(C)c2C1=O [Example 103, 3-methyl-5-(2-methyl-4-(6-(trifluoromethyl)quinazolin-2-yl)phenyl)-2-((4-methyl-piperazin-1-yl)methyl)-6,7-dihydropyrazolo[1,5-a]pyrazin-4 (5H)-one] | < 200
11 | Cc1cnn2c1C(=O)N(c1ccc(-c3ncc4cc(C(F)(F)F)ccc4n3)cc1F)CC2 [compound 013, 5-(2-fluoro-4-(6-(trifluoromethyl)quinazolin-2-yl)phenyl)-3-methyl-6,7-dihydropyrazolo[1,5-a]pyrazin-4 (5H)-one] | < 200

Second part, the molecule after the results:

Row | IC50 [nM] | SMILES
12 | < 200 | Cc1cc(-c2ncc3cc(C(F)(F)F)ccc3n2)ccc1N1CCn2nc(CN3CCOC(C)C3)c(C)c2C1=O (stereo not shown) [compound 091, 3-methyl-5-(2-methyl-4-(6-(trifluoromethyl)quinazolin-2-yl)phenyl)-2-((2-methylmorpholino)methyl)-6,7-dihydropyrazolo[1,5-a]pyrazin-4 (5H)-one]
13 | < 200 | Cc1cc(-c2ncc3cc(C(F)(F)F)ccc3n2)ccc1N1CCn2nc(C(C)O)cc2C1=O (stereo not shown) [compound 092, 2-(1-hydroxyethyl)-5-(2-methyl-4-(6-(trifluoromethyl)quinazolin-2-yl)phenyl)-6,7-dihydropyrazolo[1,5-a]pyrazin-4 (5H)-one]
14 | < 200 | Cc1cc(N2CCn3ncc(C)c3C2=O)c(F)cc1-c1ncc2nc(C(F)(F)F)ccc2n1 [compound 021, 5-(2-fluoro-5-methyl-4-(6-(trifluoromethyl)pyrido[3,2-d]pyrimidin-2-yl)phenyl)-3-methyl-6,7-dihydropyrazolo[1,5-a]pyrazin-4 (5H)-one]
15 | < 200 | Cc1cc(-c2ncc3nc(C(F)(F)F)ccc3n2)ccc1N1CCOc2cnn(C)c2C1=O [compound 001, 1-methyl-7-(2-methyl-4-(6-(trifluoromethyl)pyrido[3,2-d]pyrimidin-2-yl)phenyl)-6,7-dihydro-1H-pyrazolo[3,4-f][1,4]oxazepin-8 (5H)-one]
16 | < 200 | Cc1cc(-c2ncc3cc(C(F)(F)F)ccc3n2)ccc1N1CCn2ncc(CO)c2C1=O [compound 079, 3-(hydroxymethyl)-5-(2-methyl-4-(6-(trifluoromethyl)quinazolin-2-yl)phenyl)-6,7-dihydropyrazolo[1,5-a]pyrazin-4 (5H)-one]
17 | < 200 | Cc1cc(-c2ncc3nc(C(F)(F)F)ccc3n2)ccc1N1C(=O)c2[nH]ncc2OCC1C (stereo not shown) [compound 046, 6-methyl-7-(2-methyl-4-(6-(trifluoromethyl)pyrido[3,2-d]pyrimidin-2-yl)phenyl)-6,7-dihydro-1H-pyrazolo[3,4-f][1,4]oxazepin-8 (5H)-one]
18 | < 200 | Cc1cc(-c2ncc3cc(C(F)(F)F)ccc3n2)ccc1N1CCn2nc(CO)c(C)c2C1=O [compound 057, 2-(hydroxymethyl)-3-methyl-5-(2-methyl-4-(6-(trifluoromethyl)-quinazolin-2-yl)phenyl)-6,7-dihydropyrazolo[1,5-a]pyrazin-4 (5H)-one]
19 | < 200 | Cc1cc(-c2ncc3cc(C(F)(F)F)ccc3n2)ccc1N1CCn2nc(C(=O)N3CCOCC3)c(C)c2C1 [compound 062, (3-methyl-5-(2-methyl-4-(6-(trifluoromethyl)quinazolin-2-yl)phenyl)-4,5,6,7-tetrahydropyrazolo[1,5-a]pyrazin-2-yl)(morpholino)methanone]
20 | < 200 | Cc1cc(-c2ncc3cc(C(F)(F)F)ccc3n2)ccc1N1CCn2nc(CN3CCCC4(COC4)C3)c(C)c2C1=O [Example 110, 2-((2-oxa-6-azaspiro[3.5]nonan-6-yl)methyl)-3-methyl-5-(2-methyl-4-(6-(trifluoro-methyl)quinazolin-2-yl)phenyl)-6,7-dihydropyrazolo[1,5-a]pyrazin-4 (5H)-one]
21 | < 200 | Cc1cc(-c2ncc3cc(C(F)(F)F)ccc3n2)ccc1N1CCn2ncc(C)c2S1(=O)=O [Example 93, 8-methyl-2-(2-methyl-4-(6-(trifluoromethyl)quinazolin-2-yl)phenyl)-3,4-dihydro-2H-pyrazolo[1,5-e][1,2,5]thiadiazine 1,1-dioxide]
22 | < 200 | Cc1cc(-c2ccc3nc(C(F)(F)F)ccc3n2)ccc1N1CCOc2cnn(C)c2C1=O [compound 030, 1-methyl-7-(2-methyl-4-(6-(trifluoromethyl)-1,5-naphthyridin-2-yl)phenyl)-6,7-dihydro-1H-pyrazolo[3,4-f][1,4]oxazepin-8 (5H)-one]
23 | < 200 | Cc1cc(-c2ncc3nc(C(F)(F)F)ccc3n2)ccc1N1CCOc2c(CO)nn(C)c2C1=O [compound 082, 3-(hydroxymethyl)-1-methyl-7-(2-methyl-4-(6-(trifluoromethyl)-pyrido-[3,2-d]pyrimidin-2-yl)phenyl)-6,7-dihydro-1H-pyrazolo[3,4-f][1,4]oxazepin-8 (5H)-one]
24 | < 200 | Cc1cc(-c2ncc3cc(C(F)(F)F)ccc3n2)ccc1N1CCn2ncc(C)c2C1=O [compound 002, 3-methyl-5-(2-methyl-4-(6-(trifluoromethyl)quinazolin-2-yl)phenyl)-6,7-dihydropyrazolo[1,5-a]pyrazin-4 (5H)-one]
25 | < 200 | Cc1cc(-c2ccc3nc(C(F)(F)F)ccc3n2)ccc1N1C(=O)c2[nH]ncc2OCC1C (stereo not shown) [compound 045, 6-methyl-7-(2-methyl-4-(6-(trifluoromethyl)-1,5-naphthyridin-2-yl)phenyl)-6,7-dihydro-1H-pyrazolo[3,4-f][1,4]oxazepin-8 (5H)-one]
